What was measured:
dendritic spines [1] = conditions: low levels; cited from earlier work
dendritic spines [2] = conditions: low levels; cited from earlier work; remark: listed apart in the source
[3] = system: Rat hippocampal CA1 neurons; assay: Spine morphology of transfected neurons in cultured hippocampal brain slices, 2PLSM imaging and automatic spine analysis algorithm; assay type: cell-based; conditions: biollistic cotransfection with GFP; compared to the GFP control; at least 5 neurons per group
Description: Cultured hippocampal brain slices were prepared from 7 day old rats. After five days in vitro a small subset of neurons were biollistically transfected (for example, Lo, et al., (1994). Neuronal transfection in brain slices using particle-mediated gene transfer, Neuron 13, 1263-1268, the contents of which are hereby incorporated by reference) with a plasmid carrying the gene for enhanced green fluorescent protein (GFP) (commercially available from Clonetech) At least two days after transfection, slices were transferred to a perfusion chamber for imaging. Labeled neurons were identified and imaged using a custom-made 2PLSM laser scanning microscope (as described in Mainen, Z. F., Maletic-Savatic, M., Shi, S. H., Hayashi, Y., Malinow, R., and Svoboda, K. (1999), Two-photon imaging in living brain slices, Methods 18, 231-239, the contents of which are hereby incorporated by reference). The light source was a Ti:sapphire laser running at a wavelength of ≈990 nm (repetition frequency 80 MHz; pulse length 150 fs). The average power delivered to the backfocal plane of the objective (40x, NA 0.8) varied depending on the imaging depth (range 30 to 150 mW). Fluorescence was detected in whole-field detection mode with a photomultiplier tube.
mTOR kinase controls the phosphorylation of the translation regulators p70^56k and 4E-BP1. […]

Compound	actin-based spine motility (dendritic spines [1])	lesion-induced spine degeneration (dendritic spines [2])	spine density [3]
Cc1onc(O)c1CC(N)C(=O)O (stereo not drawn) [AMPA, alpha-amino-3-hydroxy-5-methyl-4-isoxalone]	abolished	block	
N[C@@H](CCC(=O)O)C(=O)O [glutamate]	abolished		
mTOR wt: wild-type mTOR kinase expressed from a plasmid transfected by biollistic gene transfer			increased
